Data on 21 compounds can be found in US12371428B2 (Exelixis, Inc., priority 2019, dated 2025).

Like-named read-outs stand apart in the source and are kept apart here. Where only a bound is given, the exact number is not on record here.

The target in assay [1] is Human Mer (residues R557-E882 with H628Q and R794A) (Homo sapiens, UniProt Q12866). Briefly: Human Mer kinase assay, 33P-phosphoryl transfer radiometric (Example C-1, KinaseProfiler). It counts as biochemical. As to the method: Kinase activity and compound inhibition were investigated using the ^33P-Phosphoryl transfer radiometric kinase assay, performed using the KinaseProfiler™ service of Eurofins Pharma Discovery Services UK Limited. Dose-response experiments were performed using nine compound concentrations in a 96-well microtiter plate. For each assay, all compounds were prepared to a 50× final assay concentration (50 μM) in 100% DMSO, then diluted in a half-log series, with the final top concentration at 1 μM. This working stock of the compound was added to the assay well as the first component in the reaction, followed by the remaining components as detailed in the following assay protocols below. The positive control wells (100% kinase activity) contain all components of the reaction including 2% DMSO (control for solvent effects), except the compound of interest. Blank wells contain all components of the reaction, with the reference inhibitor, staurosporine. This reference compound was used to abolish kinase activity and generated the 0% kinase activity base-line. IC50 values were calculated by nonlinear regression analysis using the sigmoidal dose-response (variable slope) curve fit on XLFit version 5.3 (ID Business Solutions).
Example C-1: Human Mer (residues R557-E882 with H628Q and R794A, 0.7 nM) was incubated with 8 mM MOPS pH 7.0, 0.2 mM EDTA, 30 mM NaCl, 250 μM […] (SEQ ID NO:2), 10 mM magnesium acetate, and 10 μM [γ-^33P-ATP]. The reaction was initiated by the addition of the Mg/ATP mix. After incubation for 40 minutes at room temperature, the reaction was stopped by the addition of phosphoric acid to a concentration of 0.5%. A reaction aliquot of 10 μL was then spotted onto a P30 filtermat and washed four times for 4 minutes in 0.425% phosphoric acid and once in methanol prior to drying and scintillation counting. Incorporated ^33P was measured using the Wallac Microbeta scintillation counter (Perkin Elmer).

In assay [2] the target is AXL (phospho-AXL, Gas6-stimulated A-172 glioblastoma cells) (Homo sapiens (Human), UniProt P30530). In words: AXL autophosphorylation ELISA in A-172 cells (Example E). To be noted: cellular activity; AXL autophosphorylation ELISA in A-172 cells; read-out: Axl IC50. It counts as cell-based. In short, it runs like this: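 Phospho-AXL was measured by ELISA in lysates of Gas6-stimulated A-172 cells, starved 24 h in serum-free medium and exposed 1 h to an 8-point compound dilution at 0.3% DMSO.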
(ELISA stands for enzyme-linked immunosorbent assay.)

Assay [3] addresses Human AXL (residues 464-885) (Homo sapiens (Human), UniProt P30530). In words: Human AXL kinase assay, HTRF KinEase (Example A-2). The class given is biochemical. The settings on record: protocol of Example A-2 (other compounds). As to the method: Kinase activity and compound inhibition were also investigated using the HTRF® KinEase assay (Cisbio Cat #62TKOPEB) per manufacturer's instructions. In short, compounds were delivered in 300 nL volumes at 10 different concentrations in DMSO (3% final) to empty 384-well assay plates (Corning cat #3824). A mixture of enzyme, […] biotynlated peptide substrate, and buffer in 10 μL volume was added. The assay was started upon the addition of ATP (at Km). The 10 μL reaction was incubated at room temperature. The reaction was stopped upon the addition of detection buffer containing streptavidin-XL665 ([…]) and TK antibody-Eu3+(5 L).
Kinase activity normalized to DMSO (100% activity) and reference compound at […] and (0% activity) was calculated using the fluorescence ratio […]. IC50 values were calculated by nonlinear regression analysis using a 4-parameter logistic curve fit in ActivityBase XE (IDBS).
The mixture was added to the pre-plated compounds. […] The reaction was incubated at room temperature for 50 min and stopped upon the addition of SA-XL665 and TK-antibody both diluted in EDTA-containing kinase detection buffer (Cisbio). The kinase activity was calculated as stated above and the IC50 values were reported.
(Time-resolved FRET reads energy transfer from a long-lived donor to a nearby acceptor.)

Where [4] appears, read: protocol of Example C-1 (compounds 21-27, 41-47, 99, 104).

Sequence of Human AXL (residues 464-885) (P30530 473-894): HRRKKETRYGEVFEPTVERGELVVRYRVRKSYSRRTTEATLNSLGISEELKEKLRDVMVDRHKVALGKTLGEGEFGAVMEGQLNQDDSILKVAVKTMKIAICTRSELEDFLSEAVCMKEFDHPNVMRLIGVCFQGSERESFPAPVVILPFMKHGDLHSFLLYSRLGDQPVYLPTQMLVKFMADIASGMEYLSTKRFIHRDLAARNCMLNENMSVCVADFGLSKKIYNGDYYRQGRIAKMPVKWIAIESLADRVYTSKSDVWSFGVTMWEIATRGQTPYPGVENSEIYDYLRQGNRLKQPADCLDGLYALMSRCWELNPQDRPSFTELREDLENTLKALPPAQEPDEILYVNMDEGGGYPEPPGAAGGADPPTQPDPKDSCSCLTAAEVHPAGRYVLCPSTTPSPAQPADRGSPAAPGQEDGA
Sequence of AXL (phospho-AXL, Gas6-stimulated A-172 glioblastoma cells) (P30530 26-894): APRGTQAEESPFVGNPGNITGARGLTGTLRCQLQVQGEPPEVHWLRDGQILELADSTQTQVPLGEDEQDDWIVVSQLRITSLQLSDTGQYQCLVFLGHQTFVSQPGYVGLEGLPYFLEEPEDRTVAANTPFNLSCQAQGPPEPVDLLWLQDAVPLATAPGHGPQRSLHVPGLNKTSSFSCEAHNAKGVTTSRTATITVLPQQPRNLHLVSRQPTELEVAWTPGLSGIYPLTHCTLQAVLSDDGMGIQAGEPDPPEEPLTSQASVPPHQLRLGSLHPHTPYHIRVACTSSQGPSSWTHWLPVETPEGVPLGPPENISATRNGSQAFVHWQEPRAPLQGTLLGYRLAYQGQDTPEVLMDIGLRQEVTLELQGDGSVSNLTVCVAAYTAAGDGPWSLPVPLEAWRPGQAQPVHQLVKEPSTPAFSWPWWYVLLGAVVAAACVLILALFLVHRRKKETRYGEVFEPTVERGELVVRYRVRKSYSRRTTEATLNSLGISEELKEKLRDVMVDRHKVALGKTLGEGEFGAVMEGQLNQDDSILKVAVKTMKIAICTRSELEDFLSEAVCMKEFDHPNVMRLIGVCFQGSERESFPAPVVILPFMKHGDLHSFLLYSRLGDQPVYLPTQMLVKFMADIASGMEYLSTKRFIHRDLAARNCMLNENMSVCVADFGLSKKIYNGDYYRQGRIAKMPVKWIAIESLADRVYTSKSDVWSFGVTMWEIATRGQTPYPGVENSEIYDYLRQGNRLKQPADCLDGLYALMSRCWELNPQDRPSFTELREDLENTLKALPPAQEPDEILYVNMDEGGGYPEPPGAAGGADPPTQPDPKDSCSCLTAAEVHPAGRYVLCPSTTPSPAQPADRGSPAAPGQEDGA
Sequence of Human Mer (residues R557-E882 with H628Q and R794A) (Q12866 21-999 limits assumed, stated change not applied): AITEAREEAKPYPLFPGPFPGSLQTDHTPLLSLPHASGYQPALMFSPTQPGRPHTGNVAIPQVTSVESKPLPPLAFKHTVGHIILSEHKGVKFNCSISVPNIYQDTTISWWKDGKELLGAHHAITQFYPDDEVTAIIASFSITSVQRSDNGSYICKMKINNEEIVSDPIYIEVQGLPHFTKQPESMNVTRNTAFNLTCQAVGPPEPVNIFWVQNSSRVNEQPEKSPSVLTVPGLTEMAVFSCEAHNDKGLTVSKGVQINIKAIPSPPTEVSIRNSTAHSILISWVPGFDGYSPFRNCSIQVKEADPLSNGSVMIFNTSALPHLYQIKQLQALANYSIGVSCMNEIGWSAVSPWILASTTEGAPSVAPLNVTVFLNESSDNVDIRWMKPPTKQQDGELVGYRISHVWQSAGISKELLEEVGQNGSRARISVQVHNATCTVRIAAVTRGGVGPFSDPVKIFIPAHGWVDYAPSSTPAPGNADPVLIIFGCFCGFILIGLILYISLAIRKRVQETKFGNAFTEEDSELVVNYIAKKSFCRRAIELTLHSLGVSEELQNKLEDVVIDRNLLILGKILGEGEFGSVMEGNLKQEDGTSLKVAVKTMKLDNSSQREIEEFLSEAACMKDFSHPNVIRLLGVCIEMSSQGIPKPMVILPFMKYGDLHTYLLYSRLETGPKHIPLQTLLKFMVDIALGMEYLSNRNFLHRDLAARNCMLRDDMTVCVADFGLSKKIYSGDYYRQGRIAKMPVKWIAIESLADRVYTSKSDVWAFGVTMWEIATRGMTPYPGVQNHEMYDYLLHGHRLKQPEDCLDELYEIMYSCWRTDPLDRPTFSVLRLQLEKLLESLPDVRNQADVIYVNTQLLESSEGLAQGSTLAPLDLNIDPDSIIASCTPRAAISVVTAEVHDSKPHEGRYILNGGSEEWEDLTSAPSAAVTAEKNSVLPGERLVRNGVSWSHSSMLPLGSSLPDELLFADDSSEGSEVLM

Broadly, the IC50 is the point on the concentration scale where inhibition reaches its midpoint. `COc1cc2nccc(Oc3ccc(NC(=O)c4cn(C(C)C)c(C)c(-c5ccc(F)cc5)c4=O)cc3F)c2nc1OC` [Compound 21, N-[4-[(6,7-Dimethoxy-1,5-naphthyridin-4-yl)oxy]-3-fluorophenyl]-5-(4-fluorophenyl)-6-methyl-4-oxo-1-propan-2-ylpyridine-3-carboxamide] came in with an IC50 in assay [1] (setting [4]) of less than 0.1 µM.
The compound `COc1cc2nccc(Oc3ccc(NC(=O)c4cn(C(C)C)c(C)c(-c5ccc(F)cc5)c4=O)cc3F)c2cc1OC` [Compound 22, N-[4-(6,7-Dimethoxyquinolin-4-yl)oxy-3-fluorophenyl]-5-(4-fluorophenyl)-6-methyl-4-oxo-1-propan-2-ylpyridine-3-carboxamide] gave an IC50 in assay [1] (setting [4]) of less than 0.1 µM.
Take `COc1cc2nccc(Oc3ccc(NC(=O)c4cn(C(C)C)c(C)c(-c5ccc(Cl)c(Cl)c5)c4=O)cc3F)c2cc1OC` [Compound 23, 5-(3,4-Dichlorophenyl)-N-[4-(6,7-dimethoxyquinolin-4-yl)oxy-3-fluorophenyl]-6-methyl-4-oxo-1-propan-2-ylpyridine-3-carboxamide]: the IC50 in assay [1] lay within 0.1 to 0.3 µM.
Regarding `COc1cc2nccc(Oc3ccc(NC(=O)c4cn(C(C)C)c(C)c(-c5ccc(F)c(Cl)c5)c4=O)cc3F)c2nc1OC` [Compound 24, 5-(3-Chloro-4-fluorophenyl)-N-[4-[(6,7-dimethoxy-1,5-naphthyridin-4-yl)oxy]-3-fluorophenyl]-6-methyl-4-oxo-1-propan-2-ylpyridine-3-carboxamide], in assay [1] (setting [4]), the IC50 was less than 0.1 µM.
With `COc1cc2nccc(Oc3ccc(NC(=O)c4cn(C(C)C)c(C)c(-c5ccc(Cl)c(Cl)c5)c4=O)cc3F)c2nc1OC` [Compound 25, 5-(3,4-Dichlorophenyl)-N-[4-[(6,7-dimethoxy-1,5-naphthyridin-4-yl)oxy]-3-fluorophenyl]-6-methyl-4-oxo-1-propan-2-ylpyridine-3-carboxamide], in assay [1] (setting [4]), the IC50 is less than 0.1 µM.
Still for that read-out and setting: then `COc1cc2nccc(Oc3ccc(NC(=O)c4cn(C5CCCC5)c(C)c(-c5ccc(F)cc5)c4=O)cc3F)c2nc1OC` [Compound 26], with less than 0.1 µM; and `COc1cc2nccc(Oc3ccc(NC(=O)c4cn(C5CCCC5)c(C)c(-c5ccc(F)c(Cl)c5)c4=O)cc3F)c2nc1OC` [Compound 27, 5-(3-Chloro-4-fluorophenyl)-1-cyclopentyl-N-[4-[(6,7-dimethoxy-1,5-naphthyridin-4-yl)oxy]-3-fluorophenyl]-6-methyl-4-oxopyridine-3-carboxamide], with less than 0.1 µM; and `COc1cc2nccc(Oc3ccc(NC(=O)c4cn(C5CC5)cc(-c5ccc(F)cc5)c4=O)cc3F)c2nc1OC` [Compound 41, 1-Cyclopropyl-N-[4-[(6,7-dimethoxy-1,5-naphthyridin-4-yl)oxy]-3-fluorophenyl]-5-(4-fluorophenyl)-4-oxopyridine-3-carboxamide], with less than 0.1 µM.
On the same count and under the same terms, the value for `COc1cc2nccc(Oc3ccc(NC(=O)c4cncc(-c5ccc(F)cc5)c4O)cc3F)c2nc1OC` [Compound 42, N-[4-[(6,7-Dimethoxy-1,5-naphthyridin-4-yl)oxy]-3-fluorophenyl]-5-(4-fluorophenyl)-4-hydroxypyridine-3-carboxamide] was less than 0.1 µM; that for `COc1cc2nccc(Oc3ccc(NC(=O)c4cn(C(C)C)cc(-c5ccc(F)cc5)c4=O)cc3F)c2cc1OC` [Compound 43, N-[4-(6,7-Dimethoxyquinolin-4-yl)oxy-3-fluorophenyl]-5-(4-fluorophenyl)-4-oxo-1-propan-2-ylpyridine-3-carboxamide] was less than 0.1 µM.
In assay [1] (setting [4]), `COc1cc2nccc(Oc3ccc(NC(=O)c4cn(C(C)C)cc(-c5ccc(F)cc5)c4=O)cc3F)c2nc1OC` [Compound 44, N-[4-[(6,7-Dimethoxy-1,5-naphthyridin-4-yl)oxy]-3-fluorophenyl]-5-(4-fluorophenyl)-4-oxo-1-propan-2-ylpyridine-3-carboxamide] returned an IC50 of less than 0.1 µM.
`COc1cc2nccc(Oc3ccc(NC(=O)c4cn(C)cc(-c5ccc(F)cc5)c4=O)cc3F)c2nc1OC` [Compound 45, N-[4-[(6,7-Dimethoxy-1,5-naphthyridin-4-yl)oxy]-3-fluorophenyl]-5-(4-fluorophenyl)-1-methyl-4-oxopyridine-3-carboxamide] returned an IC50 in assay [1] (setting [4]) of less than 0.1 µM.
In turn, `COc1cc2nccc(Oc3ccc(NC(=O)c4cn(C5CCCC5)cc(-c5ccc(F)cc5)c4=O)cc3F)c2nc1OC` [Compound 46, 1-Cyclopentyl-N-[4-[(6,7-dimethoxy-1,5-naphthyridin-4-yl)oxy]-3-fluorophenyl]-5-(4-fluorophenyl)-4-oxopyridine-3-carboxamide] returned an IC50 in assay [1] (setting [4]) of less than 0.1 µM.
Regarding `COc1cc2nccc(Oc3ccc(NC(=O)c4cn(C5COC5)cc(-c5ccc(F)cc5)c4=O)cc3F)c2nc1OC` [Compound 47, N-[4-[(6,7-Dimethoxy-1,5-naphthyridin-4-yl)oxy]-3-fluorophenyl]-5-(4-fluorophenyl)-1-(oxetan-3-yl)-4-oxopyridine-3-carboxamide], the IC50 in assay [1] (setting [4]) is less than 0.1 µM.
On to `CNc1ncc(C(=O)Nc2ccc(Oc3ccnc4cc(OC)c(OC)nc34)c(F)c2)c(=O)n1-c1ccc(F)cc1` [Compound 99, N-[4-[(6,7-Dimethoxy-1,5-naphthyridin-4-yl)oxy]-3-fluorophenyl]-1-(4-fluorophenyl)-2-(methylamino)-6-oxopyrimidine-5-carboxamide], for which the IC50 in assay [1] (setting [4]) is less than 0.1 µM.
For `COc1cc2nccc(Oc3ccc(NC(=O)c4c(C)nc(C)c(-c5ccc(F)cc5)c4O)cc3F)c2nc1OC` [Compound 154, N-[4-[(6,7-Dimethoxy-1,5-naphthyridin-4-yl)oxy]-3-fluorophenyl]-5-(4-fluorophenyl)-4-hydroxy-2,6-dimethylpyridine-3-carboxamide], the IC50 in assay [2] and in assay [3] was less than 0.1 µM each time.
Turning to `COc1cnc2c(Oc3ccc(NC(=O)c4cn(C)c(C)c(-c5ccc(F)cc5C)c4=O)cc3)ccnc2c1` [Compound 187, 5-(4-Fluoro-2-methylphenyl)-N-[4-[(7-methoxy-1,5-naphthyridin-4-yl)oxy]phenyl]-1,6-dimethyl-4-oxopyridine-3-carboxamide], the IC50 in assay [2] and in assay [3] was less than 0.1 µM in each case.
Regarding `COc1cc2nccc(Oc3ccc(NC(=O)c4ccc(C)n(-c5ccc(F)cc5)c4=O)cc3F)c2nc1OC` [Compound 254, N-[4-[(6,7-Dimethoxy-1,5-naphthyridin-4-yl)oxy]-3-fluorophenyl]-1-(4-fluorophenyl)-6-methyl-2-oxopyridine-3-carboxamide], the IC50 in assay [2] and in assay [3] was less than 0.1 µM throughout.
As for `COc1cc2nccc(Oc3ccc(NC(=O)c4cn(CC(F)(F)F)c(C)c(-c5ccc(F)cc5)c4=O)cc3)c2cc1OC` [Compound 260, N-[4-(6,7-Dimethoxyquinolin-4-yl)oxyphenyl]-5-(4-fluorophenyl)-6-methyl-4-oxo-1-(2,2,2-trifluoroethyl)pyridine-3-carboxamide], the IC50 in assay [2] and in assay [3] was less than 0.1 µM each time.
For the compound `COCCOc1ccc2nccc(Oc3ccc(NC(=O)c4cnc(C)c(-c5ccc(F)cc5)c4O)cc3F)c2n1` [Compound 348, N-[3-fluoro-4-[[6-(2-methoxyethoxy)-1,5-naphthyridin-4-yl]oxy]phenyl]-5-(4-fluorophenyl)-4-hydroxy-6-methylpyridine-3-carboxamide], the IC50 in assay [2] and in assay [3] was less than 0.1 µM throughout.
For `COc1cc2nccc(Oc3ccc(NC(=O)c4cnc(SC(C)C)n(-c5ccc(F)cc5)c4=O)cc3)c2cc1OC` [Compound 539, N-[4-(6,7-dimethoxyquinolin-4-yl)oxyphenyl]-1-(4-fluorophenyl)-6-oxo-2-propan-2-ylsulfanylpyrimidine-5-carboxamide], the IC50 in assay [2] is less than 0.1 µM.
